# Measured values as given in patent US20250288561A1, “NEZULCITINIB FOR DELIVERY BY NEBULIZED ORAL INHALATION” (THERAVANCE BIOPHARMA R&D IP, LLC, priority 2022, published 2025).
# Where two headings read alike, the source gives them in different places.
# How the values were obtained:
# TYK2 = TYK2 (Homo sapiens, UniProt P29597); assay: JAK enzyme inhibition; type: biochemical
# [1] = Phase 1 open-label study: plasma PK of single inhaled nezulcitinib doses under supplemental oxygenation scenarios; type: in vivo, human; conditions: for AUC % extrap / CL/F / DN AUC0-inf / DN AUC0-t / DN Cmax / Kel / Tmax / AUC(0-inf) / Cmax / AUC(0-t) / Vd/F / half-life: plasma; for AUC % extrap / CL/F / DN AUC0-inf / DN AUC0-t / DN Cmax / Kel / AUC(0-inf) / Cmax / AUC(0-t) / Vd/F / half-life: arithmetic mean; for Tmax: median; for Vd/F: read-out: Vz/F; for half-life: read-out: t½ (converted)
# Excerpt: Part A: assessed the plasma PK of nezulcitinib following single inhaled doses administered in the setting of various supplemental oxygenation scenarios in healthy participants.
# This was a Phase 1, open-label, fixed-sequence, 4-period study to evaluate the PK and safety of single inhaled doses of nezulcitinib, administered under different supplemental oxygenation scenarios.
# Participants received a single inhaled dose of nezulcitinib using a nebulizer device on Day 1 of each administration period, under different supplementary oxygenation conditions and under fasting conditions.
# Administrations were as follows: • Administration A (test): 3 mg nezulcitinib delivered by nasal inhalation via the Aerogen Solo integrated with a high-flow nasal cannula circuit delivering supplemental oxygen at a flow rate of 30 L/min. • Administration B (reference): 3 mg nezulcitinib delivered by oral inhalation via the Aerogen Solo coupled with the Aerogen Ultra handheld device, in the presence of supplemental oxygen delivery via low-flow nasal cannula at 6 L/min. • Administration C (test): 3 mg nezulcitinib delivered by oral inhalation via the Aerogen Solo coupled with the Aerogen Ultra handheld device, in the presence of supplemental oxygen delivery via high-flow nasal cannula at a flow rate of 30 L/min. • Administration D1 (test): 3 mg nezulcitinib delivered by oral inhalation via the Aerogen Solo coupled with the Aerogen Ultra handheld device, in the presence of supplemental oxygen delivery via high-flow nasal cannula at a flow rate of 50 L/min. • Administration D2 (test): 9 mg nezulcitinib delivered by oral inhalation via the Aerogen Solo coupled with the Aerogen Ultra handheld device, in the presence of supplemental oxygen delivery via high-flow nasal cannula at a flow rate of 50 L/min.
# Serial blood samples were collected prior to and until 48 hours following dosing on Day 1 of each period to determine the concentration of nezulcitinib in plasma.
# The following non-compartmental PK parameters were calculated for nezulcitinib, as appropriate:
# • AUC0-t: The area under the concentration time curve, from time 0 to the last observed non-zero concentration, as calculated by the linear trapezoidal method. • AUC0-24: The area under the concentration time curve, from time 0 to the 24 hour time point, as calculated by the linear trapezoidal method. • AUC0-inf: The area under the concentration time curve from time 0 extrapolated to infinity. AUC0-inf was calculated as the sum of AUC0-t plus the ratio of the last measurable plasma concentration to the elimination rate constant. • AUC % extrap: Percent of AUC0-inf extrapolated, represented as (1−AUC0-t/AUC0-inf)*100. • CL/F: Apparent total plasma clearance after oral (extravascular) administration, calculated as Dose/AUC0-inf. • Cmax: Maximum observed concentration. • Tmax: Time to reach Cmax. If the maximum value occurs at more than one time point, Tmax is defined as the first time point with this value. • Kel: Apparent first order terminal elimination rate constant calculated from a semi-log plot of the plasma concentration versus time curve. The parameter was calculated by linear least-squares regression analysis using the maximum number of points in the terminal log-linear phase (e.g., three or more non-zero plasma concentrations). • t1/2: Apparent first-order terminal elimination half-life was calculated as 0.693/Kel. • Vz/F: Apparent volume of distribution during the terminal elimination phase after oral (extravascular) administration, calculated as Dose/(AUC0-inf*Kel).
# [2] = Earlier phase 1 clinical trial, nebulized inhalation: plasma pharmacokinetics; type: in vivo, human; conditions: for maximal plasma exposure, fold lower than the protein-adjusted JAK IC50: inhaled
# Experimental: Compound 1 was evaluated in a phase 1 clinical trial and dosed in humans through nebulized inhalation at 1 mg, 3 mg, and 10 mg for up to 7 days. […] The pharmacokinetics of inhaled compound 1 are consistent with low plasma exposures after inhaled administration. […] Additionally, absolute NK cell counts were evaluated after multiple-dosing to assess the potential for systemic pharmacologic effects associated with JAK inhibition by compound 1. […] The lack of reduction in NK cell counts is also consistent with the lack of systemic JAK inhibition. […] Other systemically mediated hematological changes associated with JAK inhibition, including neutrophil and hemoglobin reductions as well as lipid changes, were not observed with inhaled administration of compound 1.
# The selected dose of 3 mg in the present study was consistent with the dose in a recently completed Phase 2 study. In addition, the 3 mg dose ensured adequate characterization of the nezulcitinib PK profile. Dose levels up to 9 mg of nezulcitinib were also evaluated (Administration D2). This dose level was within the range of doses tested previously (up to 10 mg of nezulcitinib) in healthy participants and those with COVID-19 in previous clinical studies.
# [3] = Administration A: single 3 mg, nasal inhalation via high-flow nasal cannula circuit, oxygen 30 L/min
# [4] = Administration B: single 3 mg, oral inhalation, low-flow nasal cannula oxygen 6 L/min
# [5] = Administration C: single 3 mg, oral inhalation, high-flow nasal cannula oxygen 30 L/min
# [6] = Administration D1: single 3 mg, oral inhalation, high-flow nasal cannula oxygen 50 L/min
# [7] = Administration D2: single 9 mg, oral inhalation, high-flow nasal cannula oxygen 50 L/min
# [8] = human, inhaled or intranasal, 3 mg, Administration A: single 3 mg, nasal inhalation via high-flow nasal cannula circuit, oxygen 30 L/min
# [9] = human, inhaled, 3 mg, Administration B: single 3 mg, oral inhalation, low-flow nasal cannula oxygen 6 L/min
# [10] = human, inhaled, 3 mg, Administration C: single 3 mg, oral inhalation, high-flow nasal cannula oxygen 30 L/min
# [11] = human, inhaled, 3 mg, Administration D1: single 3 mg, oral inhalation, high-flow nasal cannula oxygen 50 L/min
# [12] = human, inhaled, 9 mg, Administration D2: single 9 mg, oral inhalation, high-flow nasal cannula oxygen 50 L/min
# Chain of TYK2 (P29597 whole entry): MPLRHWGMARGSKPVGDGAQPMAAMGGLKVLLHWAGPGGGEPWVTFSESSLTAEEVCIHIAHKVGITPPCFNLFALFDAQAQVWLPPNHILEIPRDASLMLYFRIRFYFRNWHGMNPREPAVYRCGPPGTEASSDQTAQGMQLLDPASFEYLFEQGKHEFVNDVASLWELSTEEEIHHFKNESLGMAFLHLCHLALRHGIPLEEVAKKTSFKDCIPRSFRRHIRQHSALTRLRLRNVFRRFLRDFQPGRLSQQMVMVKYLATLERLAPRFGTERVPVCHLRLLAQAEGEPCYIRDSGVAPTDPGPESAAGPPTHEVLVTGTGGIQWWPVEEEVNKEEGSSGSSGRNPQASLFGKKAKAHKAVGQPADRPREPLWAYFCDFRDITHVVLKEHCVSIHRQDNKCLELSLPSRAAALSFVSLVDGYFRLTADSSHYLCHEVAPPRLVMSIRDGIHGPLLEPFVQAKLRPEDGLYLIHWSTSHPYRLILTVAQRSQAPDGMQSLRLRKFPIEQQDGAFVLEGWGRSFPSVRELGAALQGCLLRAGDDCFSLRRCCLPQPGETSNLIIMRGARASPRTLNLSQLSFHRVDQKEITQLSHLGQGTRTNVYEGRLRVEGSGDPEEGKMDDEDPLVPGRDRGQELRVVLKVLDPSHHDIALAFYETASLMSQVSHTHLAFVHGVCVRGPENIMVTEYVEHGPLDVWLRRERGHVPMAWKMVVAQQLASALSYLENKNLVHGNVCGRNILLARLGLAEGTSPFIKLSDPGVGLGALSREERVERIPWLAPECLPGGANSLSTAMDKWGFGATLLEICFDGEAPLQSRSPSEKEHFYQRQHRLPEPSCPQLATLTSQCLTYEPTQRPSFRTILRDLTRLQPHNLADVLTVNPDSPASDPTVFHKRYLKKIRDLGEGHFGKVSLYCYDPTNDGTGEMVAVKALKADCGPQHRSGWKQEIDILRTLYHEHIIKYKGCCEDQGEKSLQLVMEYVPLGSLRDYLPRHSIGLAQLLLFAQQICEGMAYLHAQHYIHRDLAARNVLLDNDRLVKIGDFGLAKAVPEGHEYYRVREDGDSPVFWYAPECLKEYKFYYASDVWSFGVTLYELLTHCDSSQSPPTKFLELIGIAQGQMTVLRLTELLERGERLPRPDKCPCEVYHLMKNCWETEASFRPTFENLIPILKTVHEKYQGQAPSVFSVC
smiles,measurement,setting,value
"CCc1cc(O)ccc1-c1ccc2c(-c3nc4c([nH]3)CN(C(C)C)[C@H](C(=O)N3CC(N(C)C)C3)C4)n[nH]c2c1 [Compound 1, (S)-(3-(dimethylamino)azetidin-1-yl)(2-(6-(2-ethyl-4-hydroxyphenyl)-1H-indazol-3-yl)-5-isopropyl-4,5,6,7-tetrahydro-3H-imidazo[4,5-c]pyridin-6-yl)methanone]",inhibition of TYK2,TYK2,potent inhibitor
same,"plasma concentrations, effect of increasing flow rate from 30 L/min (Administration C) to 50 L/min (Administration D1)",[1]; 3 mg oral inhalation,did not impact the plasma concentrations
same,"plasma concentrations, Administration C compared to Administration A","[1]; 3 mg oral inhalation with high-flow 30 L/min vs 3 mg nasal through the high-flow circuit 30 L/min, FIG. 3",sustained increased plasma concentrations
same,AUC % extrap,[1]; [3],4.451%
same,CL/F,[1]; [3],526.8 L/h
same,DN AUC0-inf,[1]; [3],2.586 ± [ng*hr/mL]/mg
same,DN AUC0-t,[1]; [3],2.480 ± [ng*hr/mL]/mg
same,DN Cmax,[1]; [3],0.5610 ± [ng/mL]/mg
same,Kel,[1]; [3],0.07122 ± 1 h⁻¹
same,Tmax,[1]; [3],1.000 h
same,AUC % extrap,[1]; [4],3.152%
same,CL/F,[1]; [4],287.0 L/h
same,DN AUC0-inf,[1]; [4],18.00 ± [ng*hr/mL]/mg
same,DN AUC0-t,[1]; [4],17.46 ± [ng*hr/mL]/mg
same,DN Cmax,[1]; [4],4.658 ± [ng/mL]/mg
same,Kel,[1]; [4],0.07667 ± 1 h⁻¹
same,AUC % extrap,[1]; [5],3.898%
same,CL/F,[1]; [5],128.9 L/h
same,DN AUC0-inf,[1]; [5],18.24 ± [ng*hr/mL]/mg
same,DN AUC0-t,[1]; [5],17.69 ± [ng*hr/mL]/mg
same,DN Cmax,[1]; [5],4.725 ± [ng/mL]/mg
same,Kel,[1]; [5],0.04804 ± 1 h⁻¹
same,AUC % extrap,[1]; [6],2.813%
same,CL/F,[1]; [6],146.9 L/h
same,DN AUC0-inf,[1]; [6],17.44 ± [ng*hr/mL]/mg
same,DN AUC0-t,[1]; [6],16.94 ± [ng*hr/mL]/mg
same,DN Cmax,[1]; [6],4.649 ± [ng/mL]/mg
same,Kel,[1]; [6],0.06152 ± 1 h⁻¹
same,Tmax,[1]; [6],1.000 h
same,AUC % extrap,[1]; [7],2.727%
same,CL/F,[1]; [7],312.3 L/h
same,DN AUC0-inf,[1]; [7],16.89 ± [ng*hr/mL]/mg
same,DN AUC0-t,[1]; [7],16.53 ± [ng*hr/mL]/mg
same,DN Cmax,[1]; [7],4.858 ± [ng/mL]/mg
same,Kel,[1]; [7],0.05057 ± 1 h⁻¹
same,Tmax,"[1]; human, inhaled, Administration B: single 3 mg, oral inhalation, low-flow nasal cannula oxygen 6 L/min, read-out: Tmax",1 h
same,Tmax,"[1]; human, inhaled, Administration D2: single 9 mg, oral inhalation, high-flow nasal cannula oxygen 50 L/min, read-out: Tmax",1 h
same,AUC(0-inf),[1]; [8],7.76 ng·h/mL
same,Cmax,[1]; [8],1.68 ng/mL
same,AUC(0-t),"[1]; human, inhaled or intranasal, 3 mg, Administration A: single 3 mg, nasal inhalation via high-flow nasal cannula circuit, oxygen 30 L/min, read-out: AUC0-24",7.06 ng·h/mL
same,AUC(0-t),"[1]; human, inhaled or intranasal, 3 mg, Administration A: single 3 mg, nasal inhalation via high-flow nasal cannula circuit, oxygen 30 L/min, read-out: AUC0-t",7.44 ng·h/mL
same,Vd/F,[1]; [8],7400 L
same,half-life,[1]; [8],10.2 h
same,AUC(0-inf),[1]; [9],54 ng·h/mL
same,Cmax,[1]; [9],14 ng/mL
same,AUC(0-t),"[1]; human, inhaled, 3 mg, Administration B: single 3 mg, oral inhalation, low-flow nasal cannula oxygen 6 L/min, read-out: AUC0-24",49.1 ng·h/mL
same,AUC(0-t),"[1]; human, inhaled, 3 mg, Administration B: single 3 mg, oral inhalation, low-flow nasal cannula oxygen 6 L/min, read-out: AUC0-t",52.4 ng·h/mL
same,Vd/F,[1]; [9],1770 L
same,half-life,[1]; [9],12.9 h
same,AUC(0-inf),[1]; [10],54.7 ng·h/mL
same,Cmax,[1]; [10],14.2 ng/mL
same,AUC(0-t),"[1]; human, inhaled, 3 mg, Administration C: single 3 mg, oral inhalation, high-flow nasal cannula oxygen 30 L/min, read-out: AUC0-24",49.9 ng·h/mL
same,AUC(0-t),"[1]; human, inhaled, 3 mg, Administration C: single 3 mg, oral inhalation, high-flow nasal cannula oxygen 30 L/min, read-out: AUC0-t",53.1 ng·h/mL
same,Vd/F,[1]; [10],3920 L
same,half-life,[1]; [10],15.1 h
same,AUC(0-inf),[1]; [11],52.3 ng·h/mL
same,Cmax,[1]; [11],13.9 ng/mL
same,AUC(0-t),"[1]; human, inhaled, 3 mg, Administration D1: single 3 mg, oral inhalation, high-flow nasal cannula oxygen 50 L/min, read-out: AUC0-24",47.9 ng·h/mL
same,AUC(0-t),"[1]; human, inhaled, 3 mg, Administration D1: single 3 mg, oral inhalation, high-flow nasal cannula oxygen 50 L/min, read-out: AUC0-t",50.8 ng·h/mL
same,Vd/F,[1]; [11],1780 L
same,half-life,[1]; [11],12.3 h
same,AUC(0-inf),[1]; [12],152 ng·h/mL
same,Cmax,[1]; [12],43.7 ng/mL
same,AUC(0-t),"[1]; human, inhaled, 9 mg, Administration D2: single 9 mg, oral inhalation, high-flow nasal cannula oxygen 50 L/min, read-out: AUC0-24",141 ng·h/mL
same,AUC(0-t),"[1]; human, inhaled, 9 mg, Administration D2: single 9 mg, oral inhalation, high-flow nasal cannula oxygen 50 L/min, read-out: AUC0-t",149 ng·h/mL
same,Vd/F,[1]; [12],7310 L
same,half-life,[1]; [12],14.1 h
same,"plasma concentration, 9 mg (Administration D2) vs 3 mg (Administration D1)","[1]; oral inhalation, high-flow 50 L/min, FIG. 6",approximately a dose-proportional increase in plasma concentration
same,"maximal plasma exposure, fold lower than the protein-adjusted JAK IC50",[2]; dose level 3 mg,about 20 fold
same,"maximal plasma exposure, fold lower than the protein-adjusted JAK IC50",[2]; dose level 10 mg,about 7 fold
same,plasma Cmax relative to the binding-corrected JAK IC50,"[2]; nebulized inhalation at 1 mg, 3 mg and 10 mg for up to 7 days",well under the binding-corrected JAK IC50
same,dose proportionality of systemic exposure (AUC0-24) and Cmax,"[2]; single and multiple doses, 1 to 10 mg",increased in a dose proportional manner
